{
  "source": "patent US8906962B2",
  "about": "“Compositions and methods for treating hair loss using non-naturally occurring prostaglandins” (Duke University, priority 2000, dated 2014)",
  "key": {"hFP": {"biological_target": "T1, hFP (Homo sapiens, UniProt P43088)", "T1 construct": "expressed in transfected cells; host or cells: COS-7 cells, transient transfection with LipofectAMINE; membranes prepared", "T1 sequence (P43088 whole entry)": "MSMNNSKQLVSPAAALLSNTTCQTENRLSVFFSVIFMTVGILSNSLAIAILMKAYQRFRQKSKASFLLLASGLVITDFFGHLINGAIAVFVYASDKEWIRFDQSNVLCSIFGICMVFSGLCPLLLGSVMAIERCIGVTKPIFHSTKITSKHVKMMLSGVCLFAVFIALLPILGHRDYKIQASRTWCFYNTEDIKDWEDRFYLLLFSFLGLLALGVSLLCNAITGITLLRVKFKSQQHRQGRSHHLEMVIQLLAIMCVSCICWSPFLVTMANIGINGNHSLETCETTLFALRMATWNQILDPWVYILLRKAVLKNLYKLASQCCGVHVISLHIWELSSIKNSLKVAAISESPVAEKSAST", "test": "Radioligand Binding Assay (competition with (3H) PGF2 on hFP membranes)", "conditions": "relative to PGF2α, hFP membranes from transfected COS-7 cells", "protocol": "IC50 of a PGF can be determined relative to PGF2α using the Radioligand Binding Assay. As a control, the IC50 for PGF2α itself should be no lower than 1.0 nM and no higher than 5.0 nM.\nIn this assay, COS-7 cells are transiently transfected with the hFP recombinant plasmid using LipofectAMINE Reagent. Forty-eight hours later, the tranfected cells are washed with Hank's Balanced Salt Solution (HBSS, without CaCl2, MgCl2, MgSO4, or phenol red). The cells are detached with versene, and HBSS is added. The mixture is centrifuged at 200 g for 10 minutes, at 4° C. to pellet the cells. The pellet is resuspended in Phosphate-Buffered Saline-EDTA buffer (PBS; 1 mM EDTA; pH 7.4; 4° C.). The cells are disrupted by nitrogen cavitation (Parr model 4639), at 800 psi, for 15 minutes at 4° C. The mixture is centrifuged at 1000 g for 10 minutes at 4° C. The supernatant is centrifuged at 100,000 g for 60 minutes at 4° C. The pellet is resuspended to 1 mg protein/mL TME buffer (50 mM Tris; 10 mM MgCl2; 1 mM EDTA; pH 6.0; 4° C.) based on protein levels measured using the Pierce BCA Protein Assay kit. The homogenate is mixed for 10 seconds using a Kinematica POLYTRON® (available from KINEMATICA AG, Luzernerstrassel47A CH-6014 Littau, Switzerland). The membrane preparations are then stored at −80° C., until thawed for assay use.\nThe receptor competition binding assays are developed in a 96 well format. Each well contains […] of hFP membrane, 5 nM (3H) PGF2, and the various competing compounds in a total volume of […]. The plates are incubated at 23° C. for 1 hour. The incubation is terminated by rapid filtration using the Packard Filtermate 196 harvester through Packard UNIFILTER® GF/B filters (available from Packard Instrument Co., Inc. of Downers Grove Ill.) pre-wetted with TME buffer. The filter is washed four times with TME buffer. […] The plates are read on a Packard TOPCOUNT® Microplate Scintillation Counter (also available from Packard Instrument Co., Inc.)"}, "C3H mice": {"tested_on": "C3H mice", "test": "Telogen Conversion Assay (topical, skin colour grade, hair growth)", "assay_type": "in vivo", "conditions": "for Grades (average animal score): day 26, visual grade 0 to 4 of skin colour (Table 4)", "protocol": "PGF's are tested for their potential to grow hair using the Telogen Conversion Assay. The Telogen Conversion Assay measures the potential of a PGF to convert mice in the resting stage of the hair growth cycle (“telogen”), to the growth stage of the hair growth cycle (“anagen”).\nWithout intending to be limited by theory, there are three principal phases of the hair growth cycle: anagen, catagen, and telogen. It is believed that there is a longer telogen period in C3H mice (Harlan Sprague Dawley, Inc., Indianapolis, Ind.) from approximately 40 days of age until about 75 days of age, when hair growth is synchronized. It is believed that after 75 days of age, hair growth is no longer synchronized. Wherein about 40 day-old mice with dark fur (brown or black) are used in hair growth experiments, melanogenesis occurs along with hair (fur) growth wherein the topical application of hair growth inducers are evaluated. The Telogen Conversion Assay herein is used to screen PGF's for potential hair growth by measuring melanogenesis.\nThree groups of 44 day-old C3H mice are used: a vehicle control group, a positive control group, and a test PGF group, wherein the test PGF group is administered a PGF used in the method of this invention. […] Day 1 is the first day of treatment. Typical dosage concentrations are set forth in Table 3, however the skilled artisan will readily understand that such concentrations may be modified.\nThe mice are treated topically Monday through Friday on their lower back (base of tail to the lower rib). A pipettor and tip are used to deliver 400 μL to each mouse's back. The 400 μL application is applied slowly while moving hair on the mouse to allow the application to reach the skin.\nWhile each treatment is being applied to the mouse topically, a visual grade of from 0 to 4 will be given to the skin color in the application area of each animal. As a mouse converts from telogen to anagen, its skin color will become more bluish-black."}, "EP1 receptor": {"biological_target": "T2, EP1 receptor (Homo sapiens, UniProt P34995)", "T2 sequence (P34995 1-402)": "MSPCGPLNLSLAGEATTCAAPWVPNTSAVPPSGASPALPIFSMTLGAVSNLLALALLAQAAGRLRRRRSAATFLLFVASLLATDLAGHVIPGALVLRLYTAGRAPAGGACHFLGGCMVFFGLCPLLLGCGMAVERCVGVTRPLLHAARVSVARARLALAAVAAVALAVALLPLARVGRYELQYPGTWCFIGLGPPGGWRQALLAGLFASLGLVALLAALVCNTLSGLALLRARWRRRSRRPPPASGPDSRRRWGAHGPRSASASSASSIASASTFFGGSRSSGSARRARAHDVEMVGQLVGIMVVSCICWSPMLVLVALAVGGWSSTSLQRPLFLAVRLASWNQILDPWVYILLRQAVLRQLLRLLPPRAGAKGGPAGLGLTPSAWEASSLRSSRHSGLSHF", "test": "Receptor selectivity statement (EP1 activation)", "conditions": "stated without method; said to result in the side effect of pain"}},
  "data": [
    {"molecule": "O=C(O)CCCCCC[C@@H]1[C@@H](CCC(O)c2nc3ccccc3s2)[C@H](O)C[C@@H]1O", "note": "(stereo partly drawn) [13,14-dihydro-15-(2-benzathiozolyl)pentanor Prostaglandin F1α]", "values": [
      {"measurement": "IC50", "setting": "hFP", "value": 45, "unit": "nM"},
      {"measurement": "hair growth", "setting": "C3H mice; concentration not given", "value": "grew hair"}
    ]},
    {"molecule": "O=C(O)CCCCCC[C@@H]1[C@@H](CCC(O)C#Cc2ccccc2F)[C@H](O)C[C@@H]1O", "note": "(some centres unmarked) [Example 3-1]", "values": [
      {"measurement": "IC50", "setting": "hFP", "value": 19, "unit": "nM"}
    ]},
    {"molecule": "O=C(O)CCCCCC[C@@H]1[C@@H](CCC(O)c2cc3ccccc3s2)[C@H](O)C[C@@H]1O", "note": "(some centres unmarked) [Example 3-2]", "values": [
      {"measurement": "IC50", "setting": "hFP", "value": 27, "unit": "nM"}
    ]},
    {"molecule": "COC(=O)CCC/C=C\\C[C@@H]1[C@@H](/C=C/[C@@H](O)COc2cccc(C(F)(F)F)c2)[C@H](O)C[C@@H]1O", "note": "[Fluprostenol Methyl Ester]", "values": [
      {"measurement": "hair growth / activity", "setting": "C3H mice; 0.01% topical", "value": "grew hair"},
      {"measurement": "Grades (average animal score)", "setting": "C3H mice; 0.01%", "value": 3.9},
      {"measurement": "hair growth / activity", "setting": "C3H mice; 0.1% topical", "value": "grew hair"},
      {"measurement": "Grades (average animal score)", "setting": "C3H mice; 0.1%", "value": 2.6}
    ]},
    {"molecule": "N[C@@H](Cc1cc(I)c(Oc2ccc(O)c(I)c2)c(I)c1)C(=O)O", "note": "[T3 compound, 3,5,3′-triiodothyronine, reference compound]", "values": [
      {"measurement": "hair growth / activity", "setting": "C3H mice; 0.01% topical", "value": "grew hair"}
    ]},
    {"molecule": "Latanoprost [reference compound]", "values": [
      {"measurement": "hair growth / activity", "setting": "C3H mice; 0.01% topical", "value": "active"},
      {"measurement": "Grades (average animal score)", "setting": "C3H mice; 0.01%", "value": 0.71},
      {"measurement": "hair growth / activity", "setting": "C3H mice; 0.1% topical", "value": "active"},
      {"measurement": "Grades (average animal score)", "setting": "C3H mice; 0.1%", "value": 2.9},
      {"measurement": "activation of EP1 receptor (nonselective)", "setting": "EP1 receptor", "value": "activates the EP1 receptor"}
    ]}
  ]
}
